Measurements from patent US6632829B2, “Sulfonamides and derivatives thereof that modulate the activity of endothelin” (Texas Biotechnology Corp., priority 1996, dated 2003).

Assays:
[1] = Oral half-life and peak plasma levels; assay type: in vivo; details: for POt½ in Rat: oral; for Peak Plasma Levels: rat, in vivo
Source text: As used herein, bioavailability refers to the rate and extent of absorption. Methods for determining bioavailability are well known to those of skill in the art. For example, bioavailability of any of the compounds described herein can be determined empirically by administration of the compound to an animal, followed by taking blood samples over time and measuring the blood concentration of the compound. In vivo half life (t1/2) is defined as the time it takes for the concentration of the compound in the blood to be reduced by one-half. Estimations of the area under the curve for intravenous administration can be used to estimate the area under the curve for oral administration, ylelding bioavailability data. See, e.g., Milo Gibal (1991) Biopharmaceutics and Pharmacology, 4th edition (Lea and Sediger).
Table 2 lists oral half-life, bioavailability, and in vivo activity of selected exemplary compounds. The in vivo activity was measured in a pulmonary hypertension model and is a measure of the activity of the compounds at selected dosages.

human ETB receptor = target: T1, human ETB receptor (Homo sapiens, UniProt P24530); experiment: Endothelin binding inhibition, Binding Test #2: competition with 125I-ET-1 for ETB receptors on transfected COS7 cell membranes; details: incubation at 24° C. (values marked †)
T1 construct: expressed in transfected cells; host or cells: COS7 cells
T1 sequence (P24530 27-442): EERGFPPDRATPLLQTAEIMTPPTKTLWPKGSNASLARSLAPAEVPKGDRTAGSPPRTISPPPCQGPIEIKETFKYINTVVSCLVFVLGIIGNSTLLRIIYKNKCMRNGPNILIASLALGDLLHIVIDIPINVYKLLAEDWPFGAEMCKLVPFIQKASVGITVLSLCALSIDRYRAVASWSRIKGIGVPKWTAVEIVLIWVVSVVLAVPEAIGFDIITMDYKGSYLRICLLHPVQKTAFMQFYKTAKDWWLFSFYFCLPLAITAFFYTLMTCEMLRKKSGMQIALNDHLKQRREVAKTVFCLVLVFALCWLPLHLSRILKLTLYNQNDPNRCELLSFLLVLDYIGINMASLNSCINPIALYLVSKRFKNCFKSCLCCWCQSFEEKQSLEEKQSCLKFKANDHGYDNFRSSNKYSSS
Outline: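 Membranes from COS7 cells transfected with human ETB receptor, prepared in HEPES pH 7.4 with aprotinin, MnCl2/DNase treatment at 37° C for 30 min. Test compounds compete with 125I-labeled ET-1 for receptor binding; membrane used at 1 μg/50 μL binding buffer.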

human ETA receptors = target: T2, human ETA receptors (Homo sapiens, UniProt P25101); experiment: Endothelin binding inhibition, Binding Test #1: competition with 125I-ET-1 for ETA receptors on TE 671 cell membranes
T2 construct: endogenous in cells; host or cells: TE 671 cells (ATCC HTB 139), membrane preparation
T2 sequence (P25101 21-427): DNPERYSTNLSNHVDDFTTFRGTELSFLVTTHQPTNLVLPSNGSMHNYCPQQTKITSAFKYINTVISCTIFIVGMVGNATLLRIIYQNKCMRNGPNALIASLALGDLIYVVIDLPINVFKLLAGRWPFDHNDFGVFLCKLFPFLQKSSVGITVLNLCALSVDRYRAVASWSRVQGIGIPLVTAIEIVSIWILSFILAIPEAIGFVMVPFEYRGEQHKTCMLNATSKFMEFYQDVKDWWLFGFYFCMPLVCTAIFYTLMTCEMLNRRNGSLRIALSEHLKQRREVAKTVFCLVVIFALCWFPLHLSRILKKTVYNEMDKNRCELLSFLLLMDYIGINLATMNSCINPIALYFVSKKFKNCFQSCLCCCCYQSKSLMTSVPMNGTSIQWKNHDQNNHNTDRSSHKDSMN

Papp = assay type: in vitro ADME; details: not told
[2] = test system: Pulmonary Hypertension model; experiment: Pulmonary Hypertension model; assay type: in vivo, rat; set-up: key: ++: effective at 5 mg/kg; −: no effect at 5 mg/kg; +: effective at 15 mg/kg
Method: As used herein, efficacy refers to the maximal effect that can be produced by a compound. Efficacy can be determined by methods known to those of skill in the art. For example, it can be determined by the properties of the compound and its receptor-effector system and is reflected in the plateau of the concentration-effect curve. In vivo efficacy refers to efficacy which is determined in an animal model. For example, in vivo efficacy of the compounds described herein can be determined by hypoxia-induced pulmonary hypertension in rat. See, e.g., DiCarlo et al. (1995) Am. J. Physiol. 269:[…]-[…]. Table 2 lists oral half-life, bioavailability, and in vivo activity of selected exemplary compounds. The in vivo activity was measured in a pulmonary hypertension model and is a measure of the activity of the compounds at selected dosages.

isolated vascular strips = details: contractile agent; cited from earlier work
[3] = incubation at 24° C. (values marked †)

Cc1cc(C)c(NC(=O)c2sccc2S(=O)(=O)Nc2onc(C)c2C)c(C)c1CC#N [N-(3,4-dimethyl-5-isoxazolyl)-2-(3-cyanomethyl-2,4,6-trimethylphenylaminocarbonyl)thiophene-3-sulfonamide]
POt½ in Rat [1]: 1.8 h
Peak Plasma Levels [1]: 10.9 µg/mL
IC50 (human ETB receptor): 22800 nM
IC50 (human ETA receptors; [3]): 1.56 nM

CC(=O)OCc1c(C)cc(C)c(NC(=O)c2sccc2S(=O)(=O)Nc2onc(C)c2Cl)c1C [N-(4-chloro-3-methyl-5-isoxazolyl)-2-(3-acetoxymethyl-2,4,6-trimethylphenylaminocarbonyl)thiophene-3-sulfonamide]
Papp (Papp): 1.46 ×10⁻⁶ cm/s
IC50 (human ETB receptor): 730000 nM
IC50 (human ETA receptors; [3]): 0.86 nM

Cc1cc(C)c(NC(=O)c2sccc2S(=O)(=O)Nc2onc(C)c2Cl)c(C)c1CC(=O)O [N-(4-chloro-3-methyl-5-isoxazolyl)-2-(3-carboxymethyl-2,4,6-trimethylphenylaminocarbonyl)thiophene-3-sulfonamide]
Papp (Papp): 1.1 ×10⁻⁶ cm/s
IC50 (human ETB receptor): 106000 nM
IC50 (human ETA receptors; [3]): 1.77 nM

Cc1cc(C)c(NC(=O)c2sccc2S(=O)(=O)Nc2onc(C)c2Cl)c(C)c1C#N [N-(4-chloro-3-methyl-5-isoxazolyl)-2-(3-cyano-2,4,6-trimethylphenylaminocarbonyl)thiophene-3-sulfonamide]
in vivo Efficacy [2]: ++
POt½ in Rat [1]: 3.9 h
Peak Plasma Levels [1]: 20 µg/mL
IC50 (human ETB receptor): 57200 nM
IC50 (human ETA receptors; [3]): 1.52 nM

Cc1cc(C)c(NC(=O)c2sccc2S(=O)(=O)Nc2onc(C)c2Cl)c(C)c1CC#N [N-(4-chloro-3-methyl-5-isoxazolyl)-2-(3-cyanomethyl-2,4,6-trimethylphenylaminocarbonyl)thiophene-3-sulfonamide]
in vivo Efficacy [2]: ++
POt½ in Rat [1]: 3.4 h
Peak Plasma Levels [1]: 40.2 µg/mL
Papp (Papp): 1.78 ×10⁻⁶ cm/s
IC50 (human ETB receptor): 38800 nM
IC50 (human ETA receptors; [3]): 1.18 nM

Cc1cc(C)c(NC(=O)c2sccc2S(=O)(=O)Nc2onc(C)c2Cl)c(C)c1CO [N-(4-chloro-3-methyl-5-isoxazolyl)-2-(3-hydroxymethyl-2,4,6-trimethylphenylaminocarbonyl)thiophene-3-sulfonamide]
POt½ in Rat [1]: 1.5 h
Peak Plasma Levels [1]: 3 µg/mL
Papp (Papp): 1.56 ×10⁻⁶ cm/s
IC50 (human ETB receptor): 74200 nM
IC50 (human ETA receptors; [3]): 0.67 nM

Cc1cc(C)c(NS(C)(=O)=O)c(C)c1NC(=O)c1sccc1S(=O)(=O)Nc1onc(C)c1Cl [N-(4-chloro-3-methyl-5-isoxazolyl)-2-(3-methanesulfonylamino-2,4,6-trimethylphenylaminocarbonyl)thiophene-3-sulfonamide]
POt½ in Rat [1]: 5.9 h
Peak Plasma Levels [1]: 2.6 µg/mL
IC50 (human ETB receptor): 67600 nM
IC50 (human ETA receptors; [3]): 1.62 nM

COC(=O)Cc1c(C)cc(C)c(NC(=O)c2sccc2S(=O)(=O)Nc2onc(C)c2Cl)c1C [N-(4-chloro-3-methyl-5-isoxazolyl)-2-(3-methoxycarbonylmethyl-2,4,6-trimethylphenylaminocarbonyl)thiophene-3-sulfonamide]
Papp (Papp): 1.69 ×10⁻⁶ cm/s
IC50 (human ETB receptor): 114000 nM
IC50 (human ETA receptors; [3]): 1 nM

Cc1cc(C)c(S(N)(=O)=O)c(C)c1NC(=O)c1sccc1S(=O)(=O)Nc1onc(C)c1Cl [N-(4-chloro-3-methyl-5-isoxazolyl)-2-(3-sulfamoyl-2,4,6-trimethylphenylaminocarbonyl)thiophene-3-sulfonamide]
POt½ in Rat [1]: 3.4 h
Peak Plasma Levels [1]: 2.8 µg/mL
IC50 (human ETB receptor): 25500 nM
IC50 (human ETA receptors; [3]): 0.92 nM

Cc1noc(NS(=O)(=O)c2ccsc2C(=O)Nc2c(C)c(C)c(C)c(C)c2C)c1Cl [N-(4-chloro-3-methyl-5-isoxazolyl)-2-(pentamethylphenylaminocarbonyl)thiophene-3-sulfonamide]
melting point: 196 to 198 °C
IC50 (human ETB receptor): 31000 nM
IC50 (human ETA receptors; [3]): 29.9 nM

Cc1cc2c(cc1CC(=O)c1sccc1S(=O)(=O)Nc1onc(C)c1Cl)OCO2 [N-(4-chloro-3-methyl-5-isoxazolyl)-2-[2-methyl-4,5-(methylenedioxy)phenylacetyl]thiophene-3-sulfonamide]
in vivo Efficacy [2]: ++
POt½ in Rat [1]: 4.1 h
Peak Plasma Levels [1]: 173 µg/mL
Papp (Papp): 2.32 ×10⁻⁶ cm/s
IC50 (human ETB receptor): 52800 nM
IC50 (human ETA receptors; [3]): 14.6 nM

COc1cc(C#N)c(NC(=O)c2sccc2S(=O)(=O)Nc2onc(C)c2Cl)c(OC)c1OC [N-(4-chloro-3-methyl-5-isoxazolyl)-2-[(2,3,4-trimethoxy-6-cyano)phenylaminocarbonyl]thiophene-3-sulfonamide]
Papp (Papp): 0.58 ×10⁻⁶ cm/s
IC50 (human ETB receptor): 7000 nM
IC50 (human ETA receptors; [3]): 0.24 nM

Cc1cc(C)c(NC(=O)c2sccc2S(=O)(=O)Nc2noc(C)c2Cl)c(C)c1CC#N [N-(4-chloro-5-methyl-3-isoxazolyl)-2-(3-cyanomethyl-2,4,6-trimethylphenylaminocarbonyl)thiophene-3-sulfonamide]
in vivo Efficacy [2]: −
POt½ in Rat [1]: 25.6 h
Peak Plasma Levels [1]: 13 µg/mL
IC50 (human ETB receptor): 7540 nM
IC50 (human ETA receptors; [3]): 0.88 nM

Cc1cc(C)c(NC(=O)c2sccc2S(=O)(=O)Nc2noc(C)c2Cl)c(C)c1CO [N-(4-chloro-5-methyl-3-isoxazolyl)-2-(3-hydroxymethyl-2,4,6-trimethylphenylaminocarbonyl)thiophene-3-sulfonamide]
IC50 (human ETB receptor): 3080 nM
IC50 (human ETA receptors; [3]): 0.88 nM

Cc1cc2c(cc1CC(=O)c1sccc1S(=O)(=O)Nc1noc(C)c1Cl)OCO2 [N-(4-chloro-5-methyl-3-isoxazolyl)-2-[2-methyl-4,5-(methylenedioxy)phenylacetyl]thiophene-3-sulfonamide]
IC50 (human ETB receptor): 3690 nM
IC50 (human ETA receptors; [3]): 0.625 nM

Cc1onc(NS(=O)(=O)c2c(Cc3ccc4c(c3)OCO4)sc3ccccc23)c1Cl [N-(4-chloro-5-methyl-3-isoxazolyl)-2-[3,4-(methylenedioxy)benzyl]benzo[b]thiophene-3-sulfonamide]
IC50 (human ETB receptor): 364 nM
IC50 (human ETA receptors; [3]): 5.5 nM

N-2-[3,4-(methylenedioxy)phenylacetyl]thiophene-3-sulfonamide
IC50 (human ETB receptor): 32500 nM
IC50 (human ETA receptors; [3]): 1800 nM

N-(3,4-dimethyl-5-isoxazolyl)-2-(4-tolylacetylphenyl)thiophene-3-sulfonamide
IC50 (human ETB receptor): 29200 nM
IC50 (human ETA receptors; [3]): 2.7 nM

N-(4-chloro-3-methyl-5-isoxazolyl)-2-[2-hydroxypropyl-4,5-(methylenedioxy)phenylaminocarbonyl]thiophene-3-sulfonamide
IC50 (human ETB receptor): 8300 nM
IC50 (human ETA receptors; [3]): 7.3 nM

N-(4-chloro-3-methyl-5-isoxazolyl)-2-[2-methyl-4,5-(methylenedioxy)phenylhydroxyimino]thiophene-3-sulfonamide
IC50 (human ETB receptor): 6490 nM
IC50 (human ETA receptors; [3]): 794 nM

N-(4-chloro-3-methyl-5-isoxazolyl)-2-[β-acetoxy-2-methyl-4,5-(methylenedioxy)styryl]thiophene-3-sulfonamide
IC50 (human ETB receptor): 3740 nM
IC50 (human ETA receptors; incubation at 4° C. (values without †)): 5.44 nM

N-(4-chloro-3-methyl-5-isoxazolyl)-2-phenylbenzo[b]thiophene sulfonamide
IC50 (human ETB receptor): 46800 nM
IC50 (human ETA receptors; [3]): 932 nM

endothelin-1
EC50 (isolated vascular strips): 0.4 nM
